Test results taken from US12280044B2, “Proteolysis-targeting chimera molecule and preparation method and use thereof” (GUANGZHOU MEDICAL UNIVERSITY, priority 2022, dated 2025).

Columns and labels:
zebrafish [1] = assay: Zebrafish experiment: melanin production in the back (gray value); assay type: in vivo
Description: (§1) Cultivation conditions for zebrafish and fish eggs: a temperature: 28° C.±1° C.; light: irradiation with a fluorescent lamp; and a light/dark cycle: 14 h light/10 h dark.
1. A specific experimental method was as follows: • (1) In the afternoon of day 1, fish mating was conducted to produce 800 to 1,000 fish eggs in a same batch. […] In the afternoon of day 2, water was replaced by an E3 medium including a sample in a corresponding experimental group. • (3) Every morning thereafter, the original medium was replaced by a fresh E3 medium including a sample in a corresponding experimental group. • (4) After fish came out from an egg membrane, the egg membrane was removed, the plate was washed twice with an E3 medium, and an E3 medium including a sample in a corresponding experimental group was added, where a date on which the fish came out from the egg membrane was recorded as day 0. • (5) From day 1 to day 5, after a medium was changed every morning, 15 fish were randomly selected from each experimental group and tested under a stereo microscope to measure a gray value of a back. Survival rates of zebrafish under different drug treatments were counted.

zebrafish [2] = assay: Zebrafish experiment: survival rates under drug treatment; assay type: in vivo
Description: as §1
1. A specific experimental method was as follows: • (1) In the afternoon of day 1, fish mating was conducted to produce 800 to 1,000 fish eggs in a same batch. Experimental groups: an untreated group (negative control), a TYR-4 drug group A3 (10 μM), an arbutin group 1 (10 μM), and an arbutin group 2 (20 mM). • (2) In the morning of day 2, fish eggs were collected and dispensed in a 24-well plate with about 10 embryos per well, where 12 wells were set for each treatment group, that is, about 120 embryos were adopted for each treatment group. In the afternoon of day 2, water was replaced by an E3 medium including a sample in a corresponding experimental group. • (3) Every morning thereafter, the original medium was replaced by a fresh E3 medium including a sample in a corresponding experimental group. • (4) After fish came out from an egg membrane, the egg membrane was removed, the plate was washed twice with an E3 medium, and an E3 medium including a sample in a corresponding experimental group was added, where a date on which the fish came out from the egg membrane was recorded as day 0. • (5) From day 1 to day 5, after a medium was changed every morning, 15 fish were randomly selected from each experimental group and tested under a stereo microscope to measure a gray value of a back. Survival rates of zebrafish under different drug treatments were counted.

zebrafish [3] = assay: Zebrafish experiment: melanin precipitate after lysis on day 5; assay type: in vivo; conditions: 10 μM
Description: 2. After photographing was completed on day 5, 100 zebrafish were taken from each group (only 80 to 90 live fish were left in the 10 μM arbutin group), transferred to a 1.5 mL EP tube, and washed twice with pure water, then 500 μL of 1 M Tris-HCl with a pH of 8.0 was added, ultrasonic lysis was conducted on ice (40% power, on 3 s/off 2 s per cycle, and ultrasonic time: 10 min), and a resulting lysis system was centrifuged at 12,000 rpm and 4° C. for 15 min to obtain a melanin precipitate.

[4] = Performance test: cytotoxicity; assay type: cell-based
Description: (§2) The cytotoxicity, TYR-inhibiting efficiency, and solubility of the molecule A3 were tested.

[5] = Performance test: solubility; assay type: physicochemical; conditions: organic solvent or mixture; in DMSO
Description: as §2

TYR [6] = molecular target: T1, TYR (Homo sapiens, UniProt P14679); assay: Performance test: TYR-inhibiting efficiency; assay type: cell-based; set-up: endogenous in cells
T1 sequence (P14679 19-529): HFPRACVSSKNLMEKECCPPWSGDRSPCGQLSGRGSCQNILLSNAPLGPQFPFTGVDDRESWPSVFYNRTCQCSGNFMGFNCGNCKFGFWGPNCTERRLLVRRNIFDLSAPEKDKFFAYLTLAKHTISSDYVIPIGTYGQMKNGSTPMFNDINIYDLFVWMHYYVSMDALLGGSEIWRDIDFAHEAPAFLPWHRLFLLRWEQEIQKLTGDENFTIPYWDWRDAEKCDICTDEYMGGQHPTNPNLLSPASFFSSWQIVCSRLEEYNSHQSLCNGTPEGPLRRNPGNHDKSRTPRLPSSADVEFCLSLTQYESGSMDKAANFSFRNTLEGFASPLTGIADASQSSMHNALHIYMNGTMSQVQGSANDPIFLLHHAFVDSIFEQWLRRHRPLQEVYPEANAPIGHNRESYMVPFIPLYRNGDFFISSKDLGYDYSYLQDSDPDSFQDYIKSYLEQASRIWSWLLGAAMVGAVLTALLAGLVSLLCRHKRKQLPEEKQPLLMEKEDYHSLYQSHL
Description: as §2
The PROTAC molecule of the present application has excellent solubility and safety (IC50>200 μM) and a low effective concentration (1 μM to 10 μM).

TYR [7] = molecular target: T1, TYR; assay: TYR protein level by western blot in human melanoma cell line A375; assay type: cell-based; set-up: endogenous in cells; host or cells: MNT-1 human melanoma cells; conditions: A375 cells, 24 h, 0.001-10 μmol/L, WB
Description: (§3) The human melanoma cell line A375 was treated for 24 h with the molecule A3 at a concentration gradient, and then a protein sample was collected and tested by western blot (WB) to determine a protein level of TYR. In the concentration gradient, final concentrations of the molecule A3 were 0.001 μmol/L, 0.01 μmol/L, 0.1 μmol/L, 1 μmol/L, and 10 μmol/L, respectively.

TYR [8] = molecular target: T1, TYR; assay: TYR protein level by western blot in human melanoma cell line MNT-1; assay type: cell-based; set-up: endogenous in cells; host or cells: MNT-1 human melanoma cells; conditions: MNT-1 cells, 24 h, 0.001-10 μmol/L, WB
Description: as §3, with “MNT-1” for “A375”, “WB” for “western blot (WB)”

TYR [9] = molecular target: T1, TYR; assay: Degradation pathway detection with proteasome inhibitor MG132 in MNT-1 cells (WB of TYR); assay type: cell-based; set-up: endogenous in cells; host or cells: MNT-1 human melanoma cells; conditions: 1 or 10 μM A3 + 10 μM MG132, 24 h
From the text: A molecular mechanism of the PROTAC molecule to degrade a target protein is as follows: molecular elements at two ends of the PROTAC molecule bind to the target protein and an ubiquitin ligase, respectively, such that the target protein is ubiquitinated and thus degraded by a proteasome. A proteasome inhibitor MG132 was used to determine whether an impact of the PROTAC molecule on a protein level of TYR was based on a proteasome degradation pathway.
A specific treatment method included the following steps: • (1) MNT-1 cells were plated on a 6-well plate and allowed to grow adherently until a cell confluency was 80%. • (2) The cells were treated according to the following groups: • (a) a normal control group; (b) a 1 μM A3 treatment group; (c) a 10 μM A3 treatment group; (d) a 10 μM MG132 treatment group; (e) a 1 μM A3+10 μM MG132 treatment group; and (f) a 10 μM A3+10 μM MG132 treatment group. • (3) 24 h after a treatment, cells in each group were collected and lysed, and a resulting total protein lysate was collected and tested by WB to determine an expression level of TYR.

Structure (SMILES) | inhibitory effect on melanin production in zebrafish (gray value of back) (zebrafish [1]; 10 μM, day 1 to day 5) | effect on melanin production compared with arbutin (zebrafish [1]; same concentration (10 μM)) | toxic and side effects, death (zebrafish [2]; effective concentration (10 μM)) | melanin precipitate amount versus untreated group (zebrafish [3]) | IC50 [4] | solubility [5] | EC50 (TYR [6]) | inhibitory effect on TYR protein level (TYR [7]) | inhibitory effect on TYR protein level (TYR [8]) | degradation effect on TYR after MG132 is added (TYR [9]) | day on which death occurs (zebrafish [2]; 10 μM) | live fish left (zebrafish [2]; 10 μM, day 5) | survival rate (zebrafish [2]; 10 μM, day 5) | day on which death occurs (zebrafish [2]; 20 mM) | survival (zebrafish [2]; 20 mM, day 5)
O=C1CCC(N2Cc3c(NC(=O)CCCCCCNC(=O)c4cc[nH]c(=S)c4)cccc3C2=O)C(=O)N1 (stereo not shown) [A3] | significant inhibitory effect on melanin production in zebrafish | better effect than common whitening agents such as arbutin | does not have any toxic and side effects and does not cause death | significantly smaller than the melanin precipitate amount in the untreated group | > 200 µM | > 523 mg/mL | < 10 µM | has an inhibitory effect on TYR in the cell line A375 | has a significant inhibitory effect on TYR in the cell line MNT-1 | significantly inhibited after MG132 is added | – | – | – | – | –
OC[C@H]1O[C@@H](Oc2ccc(O)cc2)[C@H](O)[C@@H](O)[C@@H]1O [arbutin] | – | – | – | significantly smaller than the melanin precipitate amount in the untreated group | – | – | – | – | – | – | 4 days | 80 to 90 | about 80% | 3 days | basically dies
